pIC50: −log10 of the molar value. Where a name gives a salt, the structure may show the parent alone.
Target: Human KRAS G12D His-tagged protein (Homo sapiens (Human), UniProt P01116, G12D)
Assay: KRAS G12D binding assay (TR-FRET)
Conditions: GDP 20 nM, GTP-Red
Experimental: The binding ability of the compound to KRAS G12D protein was detected by TR-FRET method, and the inhibitory activity of the compound on KRAS G12D protein was evaluated. Human KRAS G12D His-tagged (Cisbio, 63ADK000CB27PEG) protein was 100-fold diluted with PPI Eu detection buffer (Cisbio, 61DB9RBF), then 5 μL of which was added to a 384-well plate and centrifuged at 2000 rpm for 40 seconds. A 10 mM concentrated stock solution of the test compound was prepared with dimethyl sulfoxide, 3-fold serially diluted, then diluted to make a working solution (0.5% DMSO) with PPI Eu detection buffer, added to a 384-well plate at 5 μL/well, with the control group added with 0.5% dimethyl sulfoxide and the highest concentration of the test compound at 10 μM, and centrifuged at 2000 rpm for 40 seconds. An 80 nM GDP standard working solution (Cisbio, 63ADK000CB27PEG) was prepared with PPI Eu detection buffer and added to a 384-well plate at 5 μL/well, with the final concentration of GDP standard working solution at 20 nM. The plate was centrifuged at 2000 rpm for 40 seconds and reacted at room temperature for 30 minutes. 1×6His Eu cryptate antibody and GTP-Red reagent (Cisbio, 63ADK000CB27PEG) were prepared with PPI Eu detection buffer, mixed in a volume ratio of 1:1, 5 μL of which was then added to a 384-well plate, centrifuged at 2000 rpm for 40 seconds, and incubated at room temperature for 30 minutes. The fluorescence intensity at 620 nm and 665 nm was detected by a microplate reader, and the inhibitory activity of the compound on KRAS G12D protein was obtained by fitting a four-parameter equation.

| Compound | pIC50 |
| --- | --- |
| [2H]C([2H])(Oc1nc2c3c(c(Cl)c(-c4cccc5sc(N)c(C#N)c45)c(F)c3n1)OC[C@@H]1[C@@H]3CC[C@H](CN21)N3)[C@@]12CCCN1C[C@H](F)C2 (single isomer, unassigned) [Compound I-24-1] | 6.87 |
| C#Cc1cccc2cc(O)cc(-c3nc4c5c(nc(OC[C@@]67CCCN6C[C@H](F)C7)nc5c3F)N3CC5CCC(N5)C3CO4)c12 (stereo partly drawn) [Compound I-1-1, 5-ethynyl-4-(1-fluoro-12-(((2R,7aS)-2-fluorohexahydro-1H-pyrrolizin-7a-yl)methoxy)-5a,6,7,8,9,10-hexahydro-5H-4-oxa-3,10a,11,13,14-pentaaza-6,9-methanonaphtho[1,8-ab]heptan-2-yl)naphthalen-2-ol] | 7.96 |
| N#Cc1c(N)sc2c(F)ccc(-c3c(Cl)c4c5c(nc(OC[C@@]67CCCN6C[C@H](F)C7)nc5c3F)N3C[C@H]5CC[C@H](N5)[C@H]3CO4)c12 (single isomer, unassigned) [Compound I-11-2] | 8.23 |
| Nc1n[nH]c2sc3cccc(-c4c(Cl)c5c6c(nc(OC[C@@]78CCCN7C[C@H](F)C8)nc6c4F)N4C[C@H]6CC[C@H](N6)[C@H]4CO5)c3c12 (single isomer, unassigned) [Compound I-26-2] | 7.96 |
| C#Cc1cccc2cc(O)cc(-c3nc4c5c(nc(OC[C@@]67CCCN6C[C@H](F)C7)nc5c3F)N3C[C@H]5CC[C@H](N5)[C@H]3CO4)c12 [Compound I-4, 5-ethynyl-4-((5aS,6S,9R)-1-fluoro-12-(((2R,7aS)-2-fluorohexahydro-1H-pyrrolizin-7a(5H)-yl)methoxy)-5a,6,7,8,9,10-hexahydro-5H-4-oxa-3,10a,11,13,14-pentaaza-6,9-methanonaphtho[1,8-ab]heptan-2-yl)naphthalen-2-ol ditrifluoroacetate] | 8.57 |
| Nc1cc2cc(-c3c(Cl)c4c5c(nc(OC[C@@]67CCCN6C[C@H](F)C7)nc5c3F)N3C[C@H]5CC[C@H](N5)[C@H]3CO4)ccc2s1 [Compound I-16, 5-((5aS,6S,9R)-3-chloro-1-fluoro-13-(((2R,7aS)-2-fluorohexahydro-1H-pyrrolizin-7a-yl)methoxy)-5a,6,7,8,9,10-hexahydro-5H-6,9-epiminoazepino[2′,1′:3,4][1,4]oxazepino[5,6,7-de]quinazolin-2-yl)benzo[b]thiophen-2-amine ditrifluoroacetate] | 7.62 |
| CC(Oc1nc2c3c(c(Cl)c(-c4c(F)ccc5sc(N)c(C#N)c45)c(F)c3n1)OC[C@@H]1[C@@H]3CC[C@H](CN21)N3)[C@@]12CCCN1C[C@H](F)C2 (stereo partly drawn) [Compound I-18, 2-amino-4-((5aS,6S,9R)-3-chloro-1-fluoro-13-(1-((2R,7aS)-2-fluorohexahydro-1H-pyrrolizin-7a-yl)ethoxy)-5a,6,7,8,9,10-hexahydro-5H-6,9-epiminoazepino[2′,1′:3,4][1,4]oxazepino[5,6,7-de]quinazolin-2-yl)-5-fluorobenzo[b]thiophene-3-carbonitrile ditrifluoroacetate] | 7.66 |
| Nc1nc2c(-c3c(Cl)c4c5c(nc(OC[C@@]67CCCN6C[C@H](F)C7)nc5c3F)N3C[C@H]5CC[C@H](N5)[C@H]3CO4)cccc2s1 (single isomer, unassigned) [Compound I-12-1] | 7.52 |
| CC(Oc1nc2c3c(c(Cl)c(-c4cccc5sc(N)c(C#N)c45)c(F)c3n1)OCC1C3CCC(CN21)N3)C12CCCN1CC(F)C2 [Compound I-17-1, 2-amino-4-((5aS,6S,9R)-3-chloro-1-fluoro-13-(1-((2R,7aS)-2-fluorohexahydro-1H-pyrrolizin-7a-yl)ethoxy)-5a,6,7,8,9,10-hexahydro-5H-6,9-epiminoazepino[2′,1′:3,4][1,4]oxazepino[5,6,7-de]quinazolin-2-yl)benzo[b]thiophene-3-carbonitrile] | 6.19 |
| N#Cc1c(N)sc2c(F)ccc(-c3c(Cl)c4c5c(ncnc5c3F)N3C[C@H]5CC[C@H](N5)[C@H]3CO4)c12 (single isomer, unassigned) [Compound I-8-2] | 7.22 |
| N#Cc1c(N)sc2cccc(-c3c(Cl)c4c5c(ncnc5c3F)N3C[C@H]5CC[C@H](N5)[C@H]3CO4)c12 (single isomer, unassigned) [Compound I-10-2] | 7.12 |
| N#Cc1c(N)sc2cccc(-c3c(Cl)c4c5c(ncnc5c3F)N3CC5CCC(N5)C3CO4)c12 (stereo not drawn) [Compound I-6-2, 2-amino-4-(3-chloro-1-fluoro-5a,6,7,8,9,10-hexahydro-5H-6,9-epiminoazepino[2′,1′:3,4][1,4]oxazepino[5,6,7-de]quinazolin-2-yl)benzo[b]thiophene-3-carbonitrile (trans) trifluoroacetate] | 7.27 |
| Nc1nc2c(-c3c(Cl)c4c5c(nc(OC[C@@]67CCCN6C[C@H](F)C7)nc5c3F)N3C[C@H]5CC[C@H](N5)[C@H]3CO4)ccc(F)c2s1 (single isomer, unassigned) [Compound I-19-2] | 8.33 |
| 4-((5aS,6S,9R)-3-chloro-1-fluoro-13-(((2R,7aS)-2-fluorohexahydro-1H-pyrrolizin-7a-yl)methoxy)-5a,6,7,8,9,10-hexahydro-5H-6,9-epiminoazepino[2′,1′:3,4][1,4]oxazepino[5,6,7-de]quinazolin-2-yl)-1-(difluoromethyl)-1H-benzo[d]imidazol-2-amine ditrifluoroacetate [Compound I-23] | 6.66 |
| CN1CCC[C@@H]1COc1nc2c3c(c(Cl)c(-c4cccc5sc(N)c(C#N)c45)c(F)c3n1)OC[C@@H]1[C@@H]3CC[C@H](CN21)N3 [Compound I-29] | 7.97 |
| N#Cc1c(N)nn2cccc(-c3c(Cl)c4c5c(nc(OC[C@@]67CCCN6C[C@H](F)C7)nc5c3F)N3C[C@H]5CC[C@H](N5)[C@H]3CO4)c12 [Compound I-13, 2-amino-4-((5aS,6S,9R)-3-chloro-1-fluoro-13-(((2R,7aS)-2-fluorohexahydro-1H-pyrrolizin-7a-yl)methoxy)-5a,6,7,8,9,10-hexahydro-5H-6,9-epiminoazepino[2′,1′:3,4][1,4]oxazepino[5,6,7-de]quinazolin-2-yl)pyrazolo[1,5-a]pyridine-3-carbonitrile] | 7.49 |
| CC(Oc1nc2c3c(c(Cl)c(-c4cccc5sc(N)c(C#N)c45)c(F)c3n1)OC[C@H]1[C@@H]3CC[C@H](CN21)N3)[C@@]12CCCN1C[C@@H](F)C2 (stereo partly drawn) [Compound I-17-2, 2-amino-4-((5aS,6S,9R)-3-chloro-1-fluoro-13-(1-((2R,7aS)-2-fluorohexahydro-1H-pyrrolizin-7a-yl)ethoxy)-5a,6,7,8,9,10-hexahydro-5H-6,9-epiminoazepino[2′,1′:3,4][1,4]oxazepino[5,6,7-de]quinazolin-2-yl)benzo[b]thiophene-3-carbonitrile] | 8.16 |
| [2H]C1([2H])CC[C@@]2(C([2H])([2H])Oc3nc4c5c(c(Cl)c(-c6cccc7sc(N)c(C#N)c67)c(F)c5n3)OC[C@@H]3[C@@H]5CC[C@H](CN43)N5)C[C@@H](F)CN12 (single isomer, unassigned) [Compound I-27-1] | 6.67 |
| N#Cc1c(N)sc2cccc(-c3c(Cl)c4c5c(nc(OC[C@@]67CCCN6C[C@H](F)C7)nc5c3F)N3C[C@H]5CC[C@H](N5)[C@H]3CO4)c12 (single isomer, unassigned) [Compound I-7-1] | 6.73 |
| Nc1cc2c(-c3c(Cl)c4c5c(nc(OC[C@@]67CCCN6C[C@H](F)C7)nc5c3F)N3C[C@H]5CC[C@H](N5)[C@H]3CO4)c(Cl)ccc2s1 [Compound I-15, 5-chloro-4-((5aS,6S,9R)-3-chloro-1-fluoro-13-(((2R,7aS)-2-fluorohexahydro-1H-pyrrolizin-7a-yl)methoxy)-5a,6,7,8,9,10-hexahydro-5H-6,9-epiminoazepino[2′,1′:3,4][1,4]oxazepino[5,6,7-de]quinazolin-2-yl)benzo[b]thiophen-2-amine ditrifluoroacetate] | 7.42 |
| C#Cc1cccc2cc(O)cc(-c3nc4c5c(nc(OC[C@@]67CCCN6C[C@H](F)C7)nc5c3F)N3C[C@@H]5CC[C@@H](N5)[C@@H]3CO4)c12 [Compound I-5, 5-ethynyl-4-((5aR,6R,9S)-1-fluoro-12-(((2R,7aS)-2-fluorohexahydro-1H-pyrrolizin-7a(5H)-yl)methoxy)-5a,6,7,8,9,10-hexahydro-5H-4-oxa-3,10a,11,13,14-pentaaza-6,9-methanonaphtho[1,8-ab]heptan-2-yl)naphthalen-2-ol ditrifluoroacetate] | 7.60 |

— patent US20240327425A1, “KRAS G12D INHIBITOR AND USE THEREOF” (SHANGHAI DE NOVO PHARMATECH CO., LTD., priority 2021, published 2024)
